In PubChem BioAssay (NCI):
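A five-concentration, 48-hour dose response in 96-well plates underlies each endpoint, interpolated linearly between surrounding concentrations. TGI: concentration producing complete growth inhibition.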 Where a SMILES comes first, the peptide text is derived from it. [ ]: non-standard residue; d: D form. The star is where a group is joined. ξ: configuration not given here. ξPhe(4-NO2) = NC(Cc1ccc([N+](=O)[O-])cc1)C(=O)O; Boc = CC(C)(C)OC(=O)*; OBn = c1ccc(CO*)cc1

Columns and labels:
Experiment in all cases: NCI-60 cell line screen, 48 h
SNB-75 CNS = tested on: SNB-75 CNS
T-47D breast = tested on: T-47D breast
PC-3 prostate = tested on: PC-3 prostate
SF-295 CNS = tested on: SF-295 CNS
SK-OV-3 ovarian = tested on: SK-OV-3 ovarian
NCI/ADR-RES ovarian = tested on: NCI/ADR-RES ovarian
SF-268 CNS = tested on: SF-268 CNS
SW-620 colon = tested on: SW-620 colon
NCI-H522 lung = tested on: NCI-H522 lung
MCF7 breast = tested on: MCF7 breast
SR leukemia = tested on: SR leukemia

SMILES	TGI (SNB-75 CNS) [µM]	TGI (T-47D breast) [µM]	TGI (PC-3 prostate) [µM]	TGI (SF-295 CNS) [µM]	TGI (SK-OV-3 ovarian) [µM]	TGI (NCI/ADR-RES ovarian) [µM]	TGI (SF-268 CNS) [µM]	TGI (SW-620 colon) [µM]	TGI (NCI-H522 lung) [µM]	TGI (MCF7 breast) [µM]	TGI (SR leukemia) [µM]
N#CC1=C(C#N)/C(=C(\C#N)C(C#N)C#N)N=C1N	> 81.8	> 100	> 100	> 100	> 100	> 100	> 100	> 100	47.7	> 100	66.7
COc1ccc(C2CC(=O)Oc3ccccc3O2)cc1 (stereo not drawn)	> 100	> 100	> 100	> 100	> 100	> 100	> 100	> 100	93.2	> 100	> 100
CC(C)(C)OC(=O)NC(Cc1ccc([N+](=O)[O-])cc1)C(=O)NCC(=O)OCc1ccccc1 (stereo not drawn) (Boc-[ξPhe(4-NO2)]-Gly-OBn)	41.5	> 100	49.6	40.2	64.8	> 100	38.6	> 100	53	> 100	> 100
Cn1cc2c(=O)n3ncn(-c4ccc(Br)cc4)c3nc2n1	> 100	> 100	> 100	> 100	> 100	> 100	> 100	> 100	> 100	> 100	> 100
Nc1nc(N)nc(-c2cnccn2)n1	> 100	> 100	> 100	> 100	> 100	> 100	> 100	> 100	> 100	> 100	> 100
CN(C)c1ncnc2c1ncn2C1C=CC(COS(N)(=O)=O)C1 (stereo not drawn)	> 100	> 100	> 100	> 100	> 100	> 100	> 100	> 100	> 100	> 100	> 100
COC(=O)/C(C#N)=C1\NC(=O)CC(c2ccccc2)C1C#N (stereo not drawn)	> 100	> 100	> 100	> 100	> 100	> 100	> 100	> 100	> 100	> 100	> 100
CC(NC(=O)/C(C#N)=C/c1ccc2[nH]ccc2c1)c1ccccc1 (stereo not drawn)	60.5	51	39.3	35.4	40.4	> 100	42.6	33	25.7	56	83.7
